Assay results taken from ChEMBL document CHEMBL1201862, “PubChem BioAssay data set” (2004).
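Growth conditions: 96-well plates. Treatment: test compound, 48 hours, 5 concentrations. Analysis: linear interpolation between bracketing concentrations; unreached endpoints set to highest concentration. At the GI50, growth is halved.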 Active and inactive are the calls of the source. Rule as the data show it: active = GI50 up to about 1.1 µM and inactive = higher.

Experiments:
Assay in all cases: inhibition of tumour cell growth, NCI panel, 48 h
HOP-18 = tested on: HOP-18
KM-20L2 = tested on: KM-20L2
KM12 = tested on: KM12
IGROV-1 = tested on: IGROV-1
HL-60 = tested on: HL-60
SNB-78 = tested on: SNB-78
A498 = tested on: A498
UACC-257 = tested on: UACC-257
NCI-H226 = tested on: NCI-H226
SR = tested on: SR
SN12C = tested on: SN12C
OVCAR-3 = tested on: OVCAR-3
NCI-H23 = tested on: NCI-H23
UO-31 = tested on: UO-31
SW-620 = tested on: SW-620
ACHN = tested on: ACHN
RXF 631 = tested on: RXF 631
DLD-1 = tested on: DLD-1
MOLT-4 = tested on: MOLT-4
786-0 = tested on: 786-0
HCC 2998 = tested on: HCC 2998
SK-MEL-28 = tested on: SK-MEL-28
HT-29 = tested on: HT-29
TK-10 = tested on: TK-10
Malme-3M = tested on: Malme-3M
DMS-273 = tested on: DMS-273
SK-OV-3 = tested on: SK-OV-3
U-251 = tested on: U-251
SNB-75 = tested on: SNB-75
RPMI-8226 = tested on: RPMI-8226
SK-MEL-2 = tested on: SK-MEL-2
LXFL 529 = tested on: LXFL 529
SF-539 = tested on: SF-539
SF-268 = tested on: SF-268
UACC-62 = tested on: UACC-62
NCI-H522 = tested on: NCI-H522
EKVX = tested on: EKVX
OVCAR-8 = tested on: OVCAR-8
NCI-H460 = tested on: NCI-H460
COLO 205 = tested on: COLO 205
HCT-116 = tested on: HCT-116
A549 = tested on: A549
SNB-19 = tested on: SNB-19
OVCAR-4 = tested on: OVCAR-4
RXF 393 = tested on: RXF 393
HCT-15 = tested on: HCT-15
M19-MEL = tested on: M19-MEL
CAKI-1 = tested on: CAKI-1
OVCAR-5 = tested on: OVCAR-5
SF-295 = tested on: SF-295
SK-MEL-5 = tested on: SK-MEL-5
HOP-92 = tested on: HOP-92
K562 = tested on: K562
CCRF-CEM = tested on: CCRF-CEM
M14 = tested on: M14
HOP-62 = tested on: HOP-62
DMS-114 = tested on: DMS-114
LOX IMVI = tested on: LOX IMVI
XF498 = tested on: XF498

Structure (SMILES): CC1=Nc2ccccc2NC(c2ccoc2)C1 (stereo not given)
- GI50 (HOP-18): > 100 µM (inactive)
- GI50 (KM-20L2): > 100 µM (inactive)
- GI50 (KM12): > 100 µM (inactive)
- GI50 (IGROV-1): > 100 µM (inactive)
- GI50 (HL-60): > 100 µM (inactive)
- GI50 (SNB-78): > 100 µM (inactive)
- GI50 (A498): > 100 µM (inactive)
- GI50 (UACC-257): > 100 µM (inactive)
- GI50 (NCI-H226): > 100 µM (inactive)
- GI50 (SR): > 100 µM (inactive)
- GI50 (SN12C): > 100 µM (inactive)
- GI50 (OVCAR-3): > 100 µM (inactive)
- GI50 (NCI-H23): > 100 µM (inactive)
- GI50 (UO-31): > 100 µM (inactive)
- GI50 (SW-620): > 100 µM (inactive)
- GI50 (ACHN): > 100 µM (inactive)
- GI50 (RXF 631): > 100 µM (inactive)
- GI50 (DLD-1): > 100 µM (inactive)
- GI50 (MOLT-4): > 100 µM (inactive)
- GI50 (786-0): > 100 µM (inactive)
- GI50 (HCC 2998): > 100 µM (inactive)
- GI50 (SK-MEL-28): > 100 µM (inactive)
- GI50 (HT-29): > 100 µM (inactive)
- GI50 (TK-10): > 100 µM (inactive)
- GI50 (Malme-3M): > 100 µM (inactive)
- GI50 (DMS-273): > 100 µM (inactive)
- GI50 (SK-OV-3): > 100 µM (inactive)
- GI50 (U-251): > 100 µM (inactive)
- GI50 (SNB-75): > 100 µM (inactive)
- GI50 (RPMI-8226): > 100 µM (inactive)
- GI50 (SK-MEL-2): > 100 µM (inactive)
- GI50 (LXFL 529): > 100 µM (inactive)
- GI50 (SF-539): > 100 µM (inactive)
- GI50 (SF-268): > 100 µM (inactive)
- GI50 (UACC-62): > 100 µM (inactive)
- GI50 (NCI-H522): > 100 µM (inactive)
- GI50 (EKVX): > 100 µM (inactive)
- GI50 (OVCAR-8): > 100 µM (inactive)
- GI50 (NCI-H460): > 100 µM (inactive)
- GI50 (COLO 205): > 100 µM (inactive)
- GI50 (HCT-116): > 100 µM (inactive)
- GI50 (A549): > 100 µM (inactive)
- GI50 (SNB-19): > 100 µM (inactive)
- GI50 (OVCAR-4): > 100 µM (inactive)
- GI50 (RXF 393): > 100 µM (inactive)
- GI50 (HCT-15): > 100 µM
- GI50 (M19-MEL): > 100 µM (inactive)
- GI50 (CAKI-1): > 100 µM (inactive)
- GI50 (OVCAR-5): > 100 µM (inactive)
- GI50 (SF-295): > 100 µM (inactive)
- GI50 (SK-MEL-5): > 100 µM (inactive)
- GI50 (HOP-92): > 100 µM (inactive)
- GI50 (K562): > 100 µM (inactive)
- GI50 (CCRF-CEM): > 100 µM (inactive)
- GI50 (M14): > 100 µM (inactive)
- GI50 (HOP-62): > 100 µM (inactive)
- GI50 (DMS-114): > 100 µM (inactive)
- GI50 (LOX IMVI): > 100 µM (inactive)

Structure (SMILES): CC(=O)c1ccc(NC(=O)C(=O)C(C(=O)c2ccc(Cl)c(Cl)c2)C2OC(=O)c3ccccc32)cc1 (stereo not given)
- GI50 (HOP-18): 12.3 µM (inactive)
- GI50 (KM-20L2): 34.4 µM (inactive)
- GI50 (KM12): 20.1 µM (inactive)
- GI50 (IGROV-1): 29.7 µM (inactive)
- GI50 (HL-60): 28.1 µM (inactive)
- GI50 (XF498): 22.5 µM (inactive)
- GI50 (SNB-78): 12.9 µM (inactive)
- GI50 (A498): 16.6 µM (inactive)
- GI50 (UACC-257): 23.4 µM (inactive)
- GI50 (NCI-H226): 5.15 µM (inactive)
- GI50 (SR): > 100 µM (inactive)
- GI50 (SN12C): 21.6 µM (inactive)
- GI50 (OVCAR-3): 16.9 µM (inactive)
- GI50 (NCI-H23): 13.6 µM (inactive)
- GI50 (UO-31): 24.4 µM (inactive)
- GI50 (SW-620): 21.2 µM (inactive)
- GI50 (ACHN): 20.5 µM (inactive)
- GI50 (DLD-1): 23.8 µM (inactive)
- GI50 (MOLT-4): > 100 µM (inactive)
- GI50 (786-0): 16.1 µM (inactive)
- GI50 (HCC 2998): 13.7 µM (inactive)
- GI50 (HT-29): 25.3 µM (inactive)
- GI50 (TK-10): 31.4 µM (inactive)
- GI50 (Malme-3M): 5.97 µM (inactive)
- GI50 (DMS-273): 22.1 µM (inactive)
- GI50 (SK-OV-3): 59.8 µM (inactive)
- GI50 (U-251): 10.1 µM (inactive)
- GI50 (LXFL 529): 11 µM (inactive)
- GI50 (SF-268): 16.3 µM (inactive)
- GI50 (UACC-62): 19.4 µM (inactive)
- GI50 (NCI-H522): 9.38 µM (inactive)
- GI50 (EKVX): 40 µM (inactive)
- GI50 (OVCAR-8): 12.5 µM (inactive)
- GI50 (NCI-H460): 13.2 µM (inactive)
- GI50 (COLO 205): 15.1 µM (inactive)
- GI50 (HCT-116): 13 µM (inactive)
- GI50 (A549): 21.4 µM (inactive)
- GI50 (SNB-19): 25.5 µM (inactive)
- GI50 (OVCAR-4): 26.5 µM (inactive)
- GI50 (RXF 393): 4.54 µM (inactive)
- GI50 (HCT-15): 16.8 µM
- GI50 (CAKI-1): 14.6 µM (inactive)
- GI50 (OVCAR-5): 21.5 µM (inactive)
- GI50 (HOP-92): 24.5 µM (inactive)
- GI50 (K562): 23.3 µM (inactive)
- GI50 (CCRF-CEM): 73.3 µM (inactive)
- GI50 (M14): 17.7 µM (inactive)
- GI50 (HOP-62): 18.9 µM (inactive)
- GI50 (DMS-114): 13.4 µM (inactive)
- GI50 (LOX IMVI): 14.4 µM (inactive)

Structure (SMILES): COc1c(C)cc(O)cc1C=O
- GI50 (KM12): 93.3 µM (inactive)
- GI50 (IGROV-1): > 100 µM (inactive)
- GI50 (HL-60): > 100 µM (inactive)
- GI50 (SNB-78): > 100 µM (inactive)
- GI50 (UACC-257): > 100 µM (inactive)
- GI50 (NCI-H226): > 100 µM (inactive)
- GI50 (SN12C): > 100 µM (inactive)
- GI50 (OVCAR-3): > 100 µM (inactive)
- GI50 (UO-31): > 100 µM (inactive)
- GI50 (SW-620): > 100 µM (inactive)
- GI50 (ACHN): > 100 µM (inactive)
- GI50 (RXF 631): > 100 µM (inactive)
- GI50 (DLD-1): > 100 µM (inactive)
- GI50 (MOLT-4): > 100 µM (inactive)
- GI50 (786-0): > 100 µM (inactive)
- GI50 (HCC 2998): > 100 µM (inactive)
- GI50 (SK-MEL-28): > 100 µM (inactive)
- GI50 (HT-29): > 100 µM (inactive)
- GI50 (TK-10): > 100 µM (inactive)
- GI50 (Malme-3M): > 100 µM (inactive)
- GI50 (DMS-273): > 100 µM (inactive)
- GI50 (SK-OV-3): > 100 µM (inactive)
- GI50 (U-251): > 100 µM (inactive)
- GI50 (SNB-75): > 100 µM (inactive)
- GI50 (RPMI-8226): > 100 µM (inactive)
- GI50 (SK-MEL-2): > 100 µM (inactive)
- GI50 (LXFL 529): > 100 µM (inactive)
- GI50 (SF-539): > 100 µM (inactive)
- GI50 (SF-268): > 100 µM (inactive)
- GI50 (UACC-62): > 100 µM (inactive)
- GI50 (NCI-H522): > 100 µM (inactive)
- GI50 (EKVX): > 100 µM (inactive)
- GI50 (OVCAR-8): > 100 µM (inactive)
- GI50 (NCI-H460): > 100 µM (inactive)
- GI50 (COLO 205): > 100 µM (inactive)
- GI50 (A549): > 100 µM (inactive)
- GI50 (SNB-19): > 100 µM (inactive)
- GI50 (OVCAR-4): > 100 µM (inactive)
- GI50 (RXF 393): > 100 µM (inactive)
- GI50 (HCT-15): > 100 µM
- GI50 (M19-MEL): > 100 µM (inactive)
- GI50 (CAKI-1): > 100 µM (inactive)
- GI50 (OVCAR-5): > 100 µM (inactive)
- GI50 (SF-295): > 100 µM (inactive)
- GI50 (SK-MEL-5): > 100 µM (inactive)
- GI50 (HOP-92): > 100 µM (inactive)
- GI50 (K562): > 100 µM (inactive)
- GI50 (CCRF-CEM): > 100 µM (inactive)
- GI50 (M14): > 100 µM (inactive)
- GI50 (HOP-62): > 100 µM (inactive)
- GI50 (DMS-114): > 100 µM (inactive)
- GI50 (LOX IMVI): > 100 µM (inactive)
